According to article PMC7391767, “Molecular mechanisms underlying menthol binding and activation of TRPM8 ion channel” (Nature Communications, 2020):
“And” between values parts separate entries of the source, which are not always exact repeats. Equal values may be shown once.

Assays:
Assay type in all cases: cell-based
Set-up in all cases: Shifts in ANAP emission, Ave: unit: nm
[1] = molecular target: T1, ANAP-incorporated TRPM8 (Mus musculus, UniProt Q8R4D5, L864X); conditions: ANAP incorporation site L864
T1 construct: expressed in transfected cells; host or cells: HEK293 cells, co-transfected with the pANAP vector
Protocol: (§1) As fluorescence emission peak of ANAP shifts to a longer wavelength in more hydrophilic environment, we measured the shift in ANAP emission peak to report conformational changes. Fluorescence properties of ANAP may also be affected by other factors such as temperature and pH[31], so we performed our ANAP experiments always at room temperature (22 ± 1°C). To control for changes in solution pH, we added 3 mM HEPES in ANAP imaging solution to buffer the pH at 7.2. We genetically integrated ANAP into a specific site on TRPM8 with special tRNA and synthetase encoded by pANAP vector (Fig. 5d).
(§2) L-ANAP methyl ester was purchased from AsisChem. pANAP vector was purchased from Addgene. ANAP was incorporated into TRPM8 by introducing a TAG amber stop codon mutation as previously reported. Briefly, after co-transfection of both TRPM8 and pANAP vectors, ANAP was directly added to the culture medium to the final concentration of 20 µM. After 1–2 days, ANAP-containing culture medium was completely changed. Cells were further cultured in ANAP-free medium overnight before experiments.
(§3) ANAP fluorescence was excited by the Ar laser with a 375/28 excitation filter, a T400lp dichroic mirror, and a 435LP emission filter on an inverted fluorescence microscope (Nikon TE2000-U) using a ×40 oil-immersion objective (NA 1.3). Emission spectrum of ANAP was imaged with an Acton SpectraPro 2150i spectrograph in conjunction with an optiMOS CCD camera (Qimaging, USA). We determined the ANAP emission peak value by fitting the emission spectrum with a skewed Gauss distribution in Igor Pro version 6.1 (WaveMatrix), and then the difference in emission peak values measured in the absence and presence of menthol was reported as the shift of ANAP emission.

[2] = molecular target: T2, ANAP-incorporated TRPM8 (Mus musculus, UniProt Q8R4D5, I962X); conditions: ANAP incorporation site I962, menthol activated vs resting state
T2 construct: expressed in transfected cells; host or cells: HEK293 cells, co-transfected with the pANAP vector
Protocol: as §1, §2, §3

[3] = molecular target: T3, ANAP-incorporated TRPM8 (Mus musculus, UniProt Q8R4D5, S819X); conditions: ANAP incorporation site S819; average shift, menthol activated vs resting state
T3 construct: expressed in transfected cells; host or cells: HEK293 cells, co-transfected with the pANAP vector
Protocol: as §1, §2, §3

[4] = molecular target: T4, ANAP-incorporated TRPM8 (Mus musculus, UniProt Q8R4D5, W954X); conditions: ANAP incorporation site W954, menthol activated vs resting state
T4 construct: expressed in transfected cells; host or cells: HEK293 cells, co-transfected with the pANAP vector
Protocol: as §1, §2, §3

[5] = molecular target: T5, ANAP-incorporated TRPM8 (Mus musculus, UniProt Q8R4D5, Y787X); conditions: ANAP incorporation site Y787, menthol activated vs resting state
T5 construct: expressed in transfected cells; host or cells: HEK293 cells, co-transfected with the pANAP vector
Protocol: as §1, §2, §3

[6] = molecular target: T6, ANAP-incorporated TRPM8 (Mus musculus, UniProt Q8R4D5, P734X); conditions: ANAP incorporation site P734; average shift, menthol activated vs resting state
T6 construct: expressed in transfected cells; host or cells: HEK293 cells, co-transfected with the pANAP vector
Protocol: as §1, §2, §3

[7] = molecular target: T7, ANAP-incorporated TRPM8 (Mus musculus, UniProt Q8R4D5, S820X); conditions: ANAP incorporation site S820; average shift, menthol activated vs resting state
T7 construct: expressed in transfected cells; host or cells: HEK293 cells, co-transfected with the pANAP vector
Protocol: as §1, §2, §3

[8] = molecular target: T8, ANAP-incorporated TRPM8 (Mus musculus, UniProt Q8R4D5, T922X)
T8 construct: expressed in transfected cells; host or cells: HEK293 cells, co-transfected with the pANAP vector
Protocol: as §1, §2, §3

[9] = molecular target: T9, ANAP-incorporated TRPM8 (Mus musculus, UniProt Q8R4D5, Y808X); conditions: ANAP incorporation site Y808; average shift, menthol activated vs resting state
T9 construct: expressed in transfected cells; host or cells: HEK293 cells, co-transfected with the pANAP vector
Protocol: as §1, §2, §3

[10] = molecular target: T10, ANAP-incorporated TRPM8 (Mus musculus, UniProt Q8R4D5, W896X); conditions: ANAP incorporation site W896
T10 construct: expressed in transfected cells; host or cells: HEK293 cells, co-transfected with the pANAP vector
Protocol: as §1, §2, §3

[11] = molecular target: T11, ANAP-incorporated TRPM8 (Mus musculus, UniProt Q8R4D5, N947X); conditions: ANAP incorporation site N947
T11 construct: expressed in transfected cells; host or cells: HEK293 cells, co-transfected with the pANAP vector
Protocol: as §1, §2, §3

[12] = molecular target: T12, ANAP-incorporated TRPM8 (Mus musculus, UniProt Q8R4D5, L817X); conditions: ANAP incorporation site L817; average shift, menthol activated vs resting state
T12 construct: expressed in transfected cells; host or cells: HEK293 cells, co-transfected with the pANAP vector
Protocol: as §1, §2, §3

[13] = molecular target: T13, ANAP-incorporated TRPM8 (Mus musculus, UniProt Q8R4D5, L774X)
T13 construct: expressed in transfected cells; host or cells: HEK293 cells, co-transfected with the pANAP vector
Protocol: as §1, §2, §3

[14] = molecular target: T14, ANAP-incorporated TRPM8 (Mus musculus, UniProt Q8R4D5, P958X)
T14 construct: expressed in transfected cells; host or cells: HEK293 cells, co-transfected with the pANAP vector
Protocol: as §1, §2, §3

[15] = molecular target: T15, ANAP-incorporated TRPM8 (Mus musculus, UniProt Q8R4D5, F872X); conditions: ANAP incorporation site F872
T15 construct: expressed in transfected cells; host or cells: HEK293 cells, co-transfected with the pANAP vector
Protocol: as §1, §2, §3

[16] = molecular target: T16, ANAP-incorporated TRPM8 (Mus musculus, UniProt Q8R4D5, Q894X); conditions: ANAP incorporation site Q894
T16 construct: expressed in transfected cells; host or cells: HEK293 cells, co-transfected with the pANAP vector
Protocol: as §1, §2, §3

[17] = average shift, menthol activated vs resting state

## CC(C)[C@@H]1CC[C@@H](C)C[C@H]1O [menthol, (−)-menthol]
[1]; [17]
  Shifts_ave: 1.37 nm
[1]; menthol activated vs resting state, single measurement
  Shifts in emission: 1.34 nm and 1.42 nm and 1.82 nm and 1.04 nm and 1.21 nm
[1]; single measurement
  Emission Peak at menthol activated state: 481.75 nm and 488.11 nm and 492.24 nm and 485.58 nm and 489.77 nm
[2]; average shift
  Shifts_ave: 1.07 nm
[2]; single measurement
  Shifts in emission: 1.34 nm and 1.4 nm and 0.73 nm and 0.79 nm
[3]
  Shifts_ave: 0.65 nm
[4]; average shift
  Shifts_ave: 1.45 nm
[4]; single measurement
  Shifts in emission: 1.59 nm and 1.14 nm and 1.76 nm and 1.68 nm and 1.08 nm
[5]; average shift
  Shifts_ave: 1.928 nm
[5]; single measurement
  Shifts in emission: 1.56 nm and 1.57 nm and 2.4 nm and 1.35 nm and 2.69 nm and 2 nm
[6]
  Shifts_ave: 1.477 nm
[7]
  Shifts_ave: 0.28 nm
[8]; ANAP at T922
  Shifts in ANAP emission, Ave: -2.55
[8]; ANAP incorporation site T922, average shift, menthol activated vs resting state
  Shifts_ave: -2.55 nm
[8]; ANAP incorporation site T922, single measurement
  Emission Peak at menthol activated state: 473.38 nm and 482.56 nm and 468.55 nm and 478.75 nm and 477.12 nm
[9]
  Shifts_ave: 1.79 nm
[10]; [17]
  Shifts_ave: -1.22 nm
[10]; single measurement
  Emission Peak at menthol activated state: 474.04 nm and 481.17 nm and 479.96 nm and 475.43 nm
[11]; [17]
  Shifts_ave: 0.33 nm
[11]; single measurement
  Emission Peak at menthol activated state: 485.99 nm and 482.4 nm and 486.05 nm and 485.2 nm and 481.1 nm
[12]
  Shifts_ave: 0.801 nm
[13]; ANAP at L774
  Shifts in ANAP emission, Ave: 2.36
[13]; ANAP incorporation site L774, average shift, menthol activated vs resting state
  Shifts_ave: 2.3625 nm
[13]; ANAP incorporation site L774, single measurement
  Emission Peak at menthol activated state: 484.17 nm and 483.39 nm and 483.98 nm and 484.46 nm and 486.95 nm and 482.2 nm and 480.79 nm
[14]; ANAP at P958
  Shifts in ANAP emission, Ave: 2.76
[14]; ANAP incorporation site P958, average shift, menthol activated vs resting state
  Shifts_ave: 2.32 nm
[14]; ANAP incorporation site P958, menthol activated vs resting state, single measurement
  Shifts in emission: 2.11 nm and 2.76 nm and 2.75 nm and 1.64 nm
[15]; [17]
  Shifts_ave: 0.53 nm
[15]; single measurement
  Emission Peak at menthol activated state: 477.57 nm and 487.64 nm and 475.42 nm and 485.75 nm and 480.39 nm
[16]; [17]
  Shifts_ave: 1.82 nm
[16]; single measurement
  Emission Peak at menthol activated state: 487.18 nm and 484.04 nm and 488.11 nm and 490.92 nm and 483.4 nm
